Values joined by “and” are separate entries in the source; they are usually repeats but may differ in a detail not shown here. Equal values may be shown once. Read-outs that look alike come from different tables or passages of the source. Marks after values point to notes of the source that are not given here.
Assays:
[1] = Plasma pharmacokinetics of IBI351 parent drug (HPLC-MS/MS) after a single oral dose of [14C]IBI351; type: in vivo, human
Method: This was a single-center, single-dose, open-trial study involving six healthy Chinese male subjects. They received a single dose of 600 mg/150 μCi [^14C]IBI351 on day 1 after fasting for at least 10 h. Blood, urine, and fecal samples were collected at specified time points or intervals within 15 days (0–336 h) following the administration of [^14C]IBI351.
The endpoint of blood analysis was a plasma radioactivity concentration less than 1/8 of the baseline plasma value. Venous blood samples were collected from the six subjects (01101–01106) at the following time points (in hours): −1 (pre-dosing), 0.5, 1, 2, 4, 8, 12, 24, and at 24-h intervals (post-dosing). Whole blood aliquots were collected for radioactivity measurement, and blood samples were centrifuged (1500 [± 10] g, 4 ℃, 10 min) for metabolite identification. All samples were stored at −10–−30 ℃ until analysis.
Plasma, urine, and fecal samples were analyzed using high-performance liquid chromatography-tandem mass spectrometry (HPLC-MS/MS; ABSciex, Carlsbad, CA, USA) to determine the concentrations of IBI351. Samples containing stable isotope-labeled GF1927 (C32H27D3ClFN6O4, with a molecular weight of 620.10) as an internal standard were subjected to protein precipitation with acetonitrile and separated on a Waters Xbridge C18 column (3.5 μm, 50 mm × 2.1 mm; Waters, Milford, MA, USA) at 40 ℃. The mobile phase consisted of deionized water (with 0.1% formic acid) and acetonitrile (with 0.1% formic acid), delivered by gradient elution at 0.6 mL/min, and the gradient elution program was 30% phase B in 0–0.29 min, 80% phase B in 0.30–1.80 min, 30% phase B in 1.81–3.00 min. The detection was performed on a Triple Quad 6500+ tandem mass spectrometer in the positive ion electrospray ionization mode. Quantification was conducted by multiple reaction monitoring of the transitions m/z 617.3→358.2 for IBI351 and m/z 622.2→363.1 for internal standard, respectively. The calibration range for IBI351 in human plasma was 5–5000 ng/mL.
Statistical analysis of TRA in the whole blood and plasma, concentrations of IBI351, corresponding pharmacokinetic parameters, and urine and fecal excretion data was performed using Microsoft Excel 2010. The pharmacokinetic parameters were calculated using Pkanalix 2021R1 (Lixoft, Antony, France). The drug-time curve was plotted using WinNonlin® (version 8.3, Certara). Data were analyzed using the SAS 9.4 software and presented as mean ± standard deviation.

[2] = Radioactive metabolite profiling in pooled plasma, urine and feces; type: in vivo, human
Method: Moreover, four plasma samples at 1 h, 4 h, 48 h, and 96 h were obtained by mixing them in equal volumes. Urine samples were pooled across individuals at an equal volume to obtain one pooled sample within each time period of 0–24 h, 24–48 h, and 48–96 h. Fecal samples (0–192 h) were pooled at the same weight percentages across collection intervals for each subject. Moreover, fecal samples were pooled across individuals at an equal weight to obtain one pooled sample within each time period of 0–72 h, 72–120 h, and 120–192 h. Plasma, urine, and fecal homogenates were extracted and concentrated using organic solvents, and then the redissolved solutions were used for metabolite profile analysis. The plasma, urine, and fecal extracts were separated on HPLC columns, and the HPLC flow fractions were collected in Deepwell LumaPlateTM-96 plates at 15 s/fraction using an automatic fraction collector. The radioactivity of each fraction was quantified using a microplate detector with ARC® Convert and Evaluation software (3.0.2.379) and transformed to obtain the radioactive metabolite spectra. The radioactive metabolite spectra of each sample were integrated to acquire the peak area of each radioactive metabolite peak, the proportion of each spectral peak to the total radioactive intensity of the sample, and the proportion of the radioactivity of the major metabolites to the TRA in the corresponding blood, urine, and fecal samples. Therefore, the ratio of metabolites' concentrations to the total drug exposure (AUC) in the plasma and the ratio of each metabolite's level to the dose administered in the urine and feces were calculated. Liquid chromatography with low-energy radionuclide detection and mass spectrometry was used to identify the main metabolites in human plasma, urine, and fecal samples and to identify the possible biotransformation pathways of IBI351 in these samples.

[3] = IBI351 parent drug in plasma, single oral 600 mg/150 μCi, n=6, mean±SD

Question: What does the source list for `C=CC(=O)N1CCN2c3c(c(=O)n(-c4c(C)ccnc4C(C)C)c4nc(-c5c(O)cccc5F)c(Cl)cc34)N(C)C(=O)C2C1` (stereo not shown) [IBI351]?
Answer: quantifiable time point ([1]; IBI351 parent drug in plasma): 168 h; AUC0–last [1, 3]: 2.65×10^4±5.90×10^3 h·ng Eq./mL; CL/F [1, 3]: 25.6 (± 5.56) L/h and 25.6±5.56 L/h; Cmax [1, 3]: 3.90×10^3±8.02×10^2 ng Eq./mL; Cmax ([1]; IBI351 parent drug in plasma, single oral 600 mg/150 μCi, n=6, mean±SD, listed as IB1351): 3.90 × 10^3 (± 8.02 × 10^2) ng Eq./mL; Cmax ([1]; male, human, oral, 600 mg, IBI351 parent drug in plasma, read-out: mean Cmax): 3900 ng/mL; CL renal ([1]; male, human, plasma, single oral 600 mg/150 μCi, read-out: renal clearance (converted)): 30.3 mL/min; Tmax ([1]; male, human, IBI351 parent drug in plasma, single oral 600 mg/150 μCi, fasted, n=6, median (min, max)): 1 h; half-life ([1]; male, human, IBI351 parent drug in plasma, single oral 600 mg/150 μCi, n=6, mean±SD): 17.4 ± 11.9 h; MRT last ([1]; male, human, IBI351 parent drug in plasma, single oral 600 mg/150 μCi, n=6, mean±SD, read-out: MRT0–last): 8.24 ± 1.1 h; Vd/F ([1]; male, human, IBI351 parent drug in plasma, single oral 600 mg/150 μCi, n=6, mean±SD, read-out: Vz/F): 581 ± 323 L; Feces (0–192 h) % of dose ([2]; pooled feces 0–192 h): 9.71 % of dose; Plasma (0–144 h) % of AUC (share of total plasma radioactivity exposure) ([2]; pooled plasma 0–144 h): 4.54 % of AUC; Plasma (0–144 h) Metabolite/parent drug (%) ([2]; pooled plasma 0–144 h, relative to the parent drug): 100.00%; Urine (0–96 h) % of dose ([2]; pooled urine 0–96 h): 1.16 % of dose; Feces+urine % of dose ([2]; sum of feces 0–192 h and urine 0–96 h): 10.87 % of dose

From PMC12329412, “Study of the mass balance, biotransformation, and safety of [^14C]IBI351 in healthy Chinese subjects” (Journal of Biomedical Research, 2024)
